Reference: ChEMBL document CHEMBL3877314, “Molecular docking, discovery, synthesis, and pharmacological properties of new 6-substituted-2-(3-phenoxyphenyl)-4-phenyl quinoline derivatives; an approach to developing potent DNA gyrase inhibitors/antibacterial agents” (Bioorg Med Chem, 2017)

Assays:
Escherichia coli = assay: Antibacterial activity against Escherichia coli MTCC 443 at 250 ug/ml after 24 hrs by agar well diffusion method; format: functional; details: MTCC 443, 24 h, read-out: IZ
[1] = Growth inhibition of human G361 cells after 24 hrs by MTT assay; format: functional, cell-based; details: G-361, 24 h
[2] = Growth inhibition of human MCF10 cells at 10 to 150 ug/ml after 24 hrs by MTT assay; format: cell-based; details: mcf10, 24 h
DNA gyrase subunit A = DNA gyrase subunit A (Staphylococcus aureus, UniProt P20831); assay: Inhibition of Staphylococcus aureus DNA gyrase A expressed in Escherichia coli BL21(DE3) using relaxed pBR322 DNA as substrate incubated for 1 hr by bromophenol blue dye based agarose gel electrophoresis method
[3] = Growth inhibition of human MCF7 cells at 10 to 150 ug/ml after 24 hrs by MTT assay relative to control; format: functional
Pseudomonas aeruginosa = assay: Antibacterial activity against Pseudomonas aeruginosa MTCC 424 at 250 ug/ml after 24 hrs by agar well diffusion method; format: functional; details: MTCC 424, 24 h, read-out: IZ
Streptococcus pyogenes = assay: Antibacterial activity against Streptococcus pyogenes MTCC 442 at 250 ug/ml after 24 hrs by agar well diffusion method; format: functional; details: MTCC 442, 24 h, read-out: IZ
[4] = Growth inhibition of human MCF7 cells after 24 hrs by MTT assay; format: functional, cell-based; details: MCF7, 24 h
[5] = Growth inhibition of human G361 cells at 10 to 150 ug/ml after 24 hrs by MTT assay relative to control; format: functional, G-361
Staphylococcus aureus = assay: Antibacterial activity against Staphylococcus aureus MTCC 96 at 250 ug/ml after 24 hrs by agar well diffusion method; format: functional; details: MTCC 96, 24 h, read-out: IZ

DNA gyrase subunit A, sequence (P20831 whole entry): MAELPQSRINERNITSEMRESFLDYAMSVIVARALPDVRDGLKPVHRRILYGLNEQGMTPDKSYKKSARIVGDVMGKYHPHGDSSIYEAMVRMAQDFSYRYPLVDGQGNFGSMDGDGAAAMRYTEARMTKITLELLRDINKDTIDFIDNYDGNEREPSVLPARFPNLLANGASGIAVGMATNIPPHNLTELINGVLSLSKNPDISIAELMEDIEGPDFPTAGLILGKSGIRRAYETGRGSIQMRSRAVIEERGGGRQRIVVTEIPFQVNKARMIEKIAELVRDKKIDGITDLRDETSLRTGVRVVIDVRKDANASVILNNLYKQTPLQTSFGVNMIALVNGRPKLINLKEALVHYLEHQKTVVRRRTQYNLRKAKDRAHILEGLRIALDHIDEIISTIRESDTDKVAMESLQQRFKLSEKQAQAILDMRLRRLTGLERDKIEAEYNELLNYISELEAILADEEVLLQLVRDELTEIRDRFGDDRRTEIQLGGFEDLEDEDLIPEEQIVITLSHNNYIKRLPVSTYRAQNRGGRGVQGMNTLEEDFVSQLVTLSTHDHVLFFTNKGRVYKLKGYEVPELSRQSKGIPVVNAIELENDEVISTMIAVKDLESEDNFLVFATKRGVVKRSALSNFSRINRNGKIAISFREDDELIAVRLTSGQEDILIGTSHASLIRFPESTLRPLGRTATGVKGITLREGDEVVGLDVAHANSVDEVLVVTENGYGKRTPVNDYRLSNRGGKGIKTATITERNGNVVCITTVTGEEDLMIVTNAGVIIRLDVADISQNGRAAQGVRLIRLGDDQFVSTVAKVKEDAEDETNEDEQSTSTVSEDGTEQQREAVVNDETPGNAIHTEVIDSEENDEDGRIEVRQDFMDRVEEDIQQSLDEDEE

Structure (SMILES)	zone of inhibition at 250 µg/mL (Escherichia coli) [mm]	IC50 [1] [µM]	growth inhibition (GI) [2]	IC50 (DNA gyrase subunit A) [nM]	growth inhibition (GI) [3] [%]	zone of inhibition at 250 µg/mL (Pseudomonas aeruginosa) [mm]	zone of inhibition at 250 µg/mL (Streptococcus pyogenes) [mm]	IC50 [4] [nM]	growth inhibition (GI) [5] [%]	zone of inhibition at 250 µg/mL (Staphylococcus aureus) [mm]
COc1ccc2nc(-c3cccc(Oc4ccccc4)c3)cc(-c3ccccc3)c2c1	21.4	2.02	Non-Toxic	530 to 11500	74.49	10.8	22.7	548	59.27	29.6
Clc1ccc2nc(-c3cccc(Oc4ccccc4)c3)cc(-c3ccccc3)c2c1	18.1	12	Non-Toxic	525 to 11300	32.14	6.89	20.2	11000	30.45	21.6
Oc1c(Cl)cc2nc(-c3cccc(Oc4ccccc4)c3)cc(-c3ccccc3)c2c1Cl	26	2	Non-Toxic	467	73.17	21.3	29.2	702	60.34	38.5
Fc1ccc2nc(-c3cccc(Oc4ccccc4)c3)cc(-c3ccccc3)c2c1	18.3	3.85	Non-Toxic	912 to 994	60.25	10.4	18.5	1680	46.24	29.9
Oc1ccc2nc(-c3cccc(Oc4ccccc4)c3)cc(-c3ccccc3)c2c1	26.5	2.07	Non-Toxic	842 to 1070	72.56	16.5	29.8	694	58.46	34.6
Brc1ccc2nc(-c3cccc(Oc4ccccc4)c3)cc(-c3ccccc3)c2c1	16.4	14.6	Non-Toxic	473 to 10200	30.81	9.79	22.4	11100	28.89	22.5
Cc1cc2nc(-c3cccc(Oc4ccccc4)c3)cc(-c3ccccc3)c2cc1C	22.5	5.84	Non-Toxic	533 to 11500	48.34	11.4	22.5	3410	38.18	27.5
N#Cc1ccc2nc(-c3cccc(Oc4ccccc4)c3)cc(-c3ccccc3)c2c1	16.5	2.15	Non-Toxic	537 to 11600	70.64	12.7	21.2	822	54.38	26.5
CO[C@@H]1[C@@H](OC(=O)c2ccc(C)[nH]2)[C@@H](O)[C@H](Oc2ccc3c(O)c(NC(=O)c4ccc(O)c(CC=C(C)C)c4)c(=O)oc3c2Cl)OC1(C)C [CHLOROBIOCIN]	–	–	–	930	–	–	–	–	–	–
O=C(O)c1cn(C2CC2)c2cc(N3CCNCC3)c(F)cc2c1=O [CIPROFLOXACIN]	21 to 26.7	–	–	–	–	21 to 23.8	18 to 24.4	–	–	21 to 26.4
COc1cccc2c1C(=O)c1c(O)c3c(c(O)c1C2=O)C[C@@](O)(C(=O)CO)C[C@@H]3O[C@H]1C[C@H](N)[C@H](O)[C@H](C)O1 [DOXORUBICIN]	–	–	–	–	71.56	–	–	812 to 1200	–	–
